Measurements from DBAASP.
≈ marks a conversion by molar mass, not a printed value. Where “and” joins values, the source holds several entries; their conditions need not be identical. Equal values may be shown once.

Columns and labels:
Experiment in all cases: ≥ marks a high value that may be exact or a test limit, other limits are often not marked, values filed in µg/mL are converted to µM
[1] = tested on: Pseudomonas aeruginosa ATCC 27853
[2] = tested on: Pseudomonas aeruginosa NCDC 0105
[3] = tested on: Acinetobacter johnsonii NCDC 0072
[4] = tested on: Staphylococcus aureus ATCC 29213
[5] = tested on: Staphylococcus aureus NCDC 0111
[6] = tested on: Salmonella enterica subsp. enterica serovar Typhimurium ATCC 14028
[7] = tested on: Listeria monocytogenes ATCC 19111
[8] = tested on: Bacillus cereus NCDC 0240
[9] = tested on: Escherichia coli MTCC 0723
[10] = tested on: Bacillus subtilis ATCC 6633
[11] = tested on: Klebsiella pneumoniae ATCC 27736
[12] = tested on: Pseudomonas aeruginosa ATCC BAA-427
[13] = tested on: Candida albicans ATCC 36232
[14] = tested on: Staphylococcus aureus 1550
[15] = tested on: Micrococcus luteus ATCC 9341
[16] = tested on: Pseudomonas aeruginosa ATCC 9027
[17] = tested on: Staphylococcus aureus ATCC 6538
[18] = tested on: Escherichia coli ATCC 2592
[19] = tested on: Streptococcus mutans UA159
[20] = tested on: Streptococcus sobrinus ATCC 6715
[21] = tested on: Streptococcus sanguinis ATCC 10556
[22] = tested on: Bacillus megaterium
[23] = tested on: Aspergillus flavus IFFI 4015
[24] = tested on: Shigella dysenteriae
[25] = tested on: Penicillium urticae IFFI 2001
[26] = tested on: Klebsiella pneumoniae
[27] = tested on: Candida albicans ATCC 2002
[28] = tested on: Pseudomonas aeruginosa CMCCB 10104
[29] = tested on: Staphylococcus aureus ATCC 2592
[30] = tested on: Staphylococcus aureus AB94004
[31] = tested on: Escherichia coli ATCC 25922
[32] = tested on: Staphylococcus aureus P1381
[33] = tested on: Pseudomonas aeruginosa AB93066
[34] = tested on: Staphylococcus aureus P1374
[35] = tested on: Staphylococcus aureus ATCC 25923
[36] = tested on: Escherichia coli AB94012
[37] = tested on: Bacillus cereus KCTC 1012
[38] = tested on: Staphylococcus aureus
[39] = tested on: Streptococcus pyogenes
[40] = tested on: Bacillus subtilis KCTC 2217
[41] = tested on: Staphylococcus saprophyticus
[42] = tested on: Acinetobacter baumannii KCTC 2508
[43] = tested on: Staphylococcus epidermidis
[44] = tested on: Klebsiella pneumoniae KCTC 2208
[45] = tested on: Streptococcus sp.
[46] = tested on: Acinetobacter baumannii
[47] = tested on: Escherichia coli

CC[C@H](C)[C@H](NC(=O)[C@H](Cc1c[nH]c2ccccc12)NC(=O)[C@@H](NC(=O)[C@H](Cc1c[nH]c2ccccc12)NC(=O)[C@@H]1CCCN1C(=O)[C@@H](NC(=O)[C@H](C)N)[C@@H](C)CC)[C@@H](C)CC)C(=O)N[C@@H](Cc1c[nH]c2ccccc12)C(=O)N[C@@H](Cc1c[nH]c2ccccc12)C(=O)N[C@@H](CC(C)C)C(=O)N[C@@H](CC(C)C)C(=O)N[C@@H](CCCN=C(N)N)C(=O)N[C@@H](CCCCN)C(=O)NCC(=O)O [AIPWIWIWWLLRKG]
MIC [1]: 6 µM (≈ 11 µg/mL) | MIC [2]: 6 µM (≈ 11 µg/mL) | MIC [3]: 1.5 µM (≈ 2.76 µg/mL) | MIC [4]: 6 µM (≈ 11 µg/mL) | MIC [5]: 0.4 µM (≈ 0.735 µg/mL) | MIC [6]: 1.5 µM (≈ 2.76 µg/mL) | MIC [7]: 6 µM (≈ 11 µg/mL) | MIC [8]: 0.8 µM (≈ 1.47 µg/mL) | MIC [9]: 6 µM (≈ 11 µg/mL)

CC[C@H](C)[C@H](NC(=O)CNC(=O)[C@H](CCCN=C(N)N)NC(=O)[C@H](Cc1ccccc1)NC(=O)[C@@H](NC(=O)[C@H](Cc1cnc[nH]1)NC(=O)[C@H](Cc1cnc[nH]1)NC(=O)[C@H](Cc1ccccc1)NC(=O)[C@@H](N)Cc1ccccc1)[C@@H](C)CC)C(=O)N[C@H](C(=O)N[C@@H](Cc1cnc[nH]1)C(=O)N[C@H](C(=O)NCC(=O)N[C@@H](CCCCN)C(=O)N[C@H](C(=O)N[C@H](C(=O)N[C@@H](Cc1cnc[nH]1)C(=O)N[C@@H](CCCN=C(N)N)C(=O)N[C@@H](CC(C)C)C(=O)N[C@H](C(=O)N[C@H](C(=O)NCC(N)=O)[C@@H](C)O)C(C)C)C(C)C)[C@@H](C)O)C(C)C)C(C)C [FFHHIFRGIVHVGKTVHRLVTG]
MIC [10]: 8 µM (≈ 20.5 µg/mL) | MIC [11]: 6 µM (≈ 15.3 µg/mL) | MIC [12]: 12 µM (≈ 30.7 µg/mL)

CC(C)[C@H](NC(=O)[C@H](CCCCN)NC(=O)[C@@H](NC(=O)[C@H](CCCCN)NC(=O)[C@H](Cc1ccccc1)NC(=O)[C@H](CCCCN)NC(=O)[C@@H](NC(=O)[C@H](CCCCN)NC(=O)[C@@H](N)Cc1ccccc1)C(C)C)C(C)C)C(=O)N[C@@H](CCCCN)C(=O)O [FKVKFKVKVK]
MIC [13]: 5 µM and 8 µM | MIC [14]: 8.8 µM (≈ 11 µg/mL) | MIC [15]: 4 µM (≈ 5 µg/mL) | MIC [16]: 4.8 µM (≈ 6 µg/mL) | MIC [17]: 7.2 µM (≈ 9 µg/mL) | MIC [18]: 10 µM (≈ 12.5 µg/mL)

CC(C)[C@H](NC(=O)[C@H](CCCN=C(N)N)NC(=O)[C@H](C)NC(=O)[C@H](C)NC(=O)[C@H](CCCCN)NC(=O)[C@H](CCCCN)NC(=O)[C@H](Cc1ccccc1)NC(=O)[C@H](Cc1ccccc1)NC(=O)[C@H](CCCN=C(N)N)NC(=O)CNC(=O)[C@H](Cc1c[nH]c2ccccc12)NC(=O)CN)C(=O)NCC(=O)N[C@@H](CCCCN)C(=O)N[C@@H](CCCN=C(N)N)C(=O)N[C@H](C(=O)NCC(=O)N[C@@H](CCCCN)C(=O)O)C(C)C [GWGRFFKKAARVGKRVGK]
MIC [19]: ≥ 250 µM | MIC [20]: ≥ 250 µM | MIC [21]: ≥ 250 µM

CC[C@H](C)[C@H](NC(=O)[C@H](CCCCN)NC(=O)[C@H](C)NC(=O)CNC(=O)[C@@H](NC(=O)[C@@H](N)CO)[C@@H](C)CC)C(=O)N[C@@H](CC(C)C)C(=O)NCC(=O)NCC(=O)N[C@H](C(=O)N[C@@H](CCCCN)C(=O)N[C@H](C(=O)N[C@@H](Cc1ccccc1)C(=O)N[C@@H](Cc1ccccc1)C(=O)N[C@@H](CCCCN)C(=O)NCC(=O)N[C@@H](C)C(=O)N[C@@H](CC(C)C)C(=O)N[C@@H](CCCCN)C(=O)N[C@@H](CCC(=O)O)C(=O)N[C@@H](CC(C)C)C(=O)N[C@@H](C)C(=O)N[C@@H](CO)C(=O)N[C@H](C(=O)N[C@@H](Cc1ccc(O)cc1)C(=O)N[C@@H](CC(C)C)C(=O)N[C@@H](CCC(N)=O)C(=O)O)[C@@H](C)O)[C@@H](C)O)C(C)C [SIGAKILGGVKTFFKGALKELASTYLQ]
MIC [22]: 4.22 µM (≈ 12 µg/mL) | MIC [23]: 4.22 µM (≈ 12 µg/mL) | MIC [24]: 4.22 µM (≈ 12 µg/mL) | MIC [25]: 4.22 µM (≈ 12 µg/mL) | MIC [26]: 1.27 µM (≈ 3.6 µg/mL) | MIC [27]: 0.422 µM (≈ 1.2 µg/mL) | MIC [28]: 2.53 µM (≈ 7.2 µg/mL) | MIC [29]: 1.27 µM (≈ 3.6 µg/mL)

CC[C@H](C)[C@H](NC(=O)[C@H](CO)NC(=O)[C@H](CCCCN)NC(=O)[C@@H](NC(=O)CNC(=O)[C@H](CCCCN)NC(=O)[C@H](Cc1c[nH]c2ccccc12)NC(=O)[C@H](CC(C)C)NC(=O)[C@H](CCCCN)NC(=O)CNC(=O)[C@H](CC(C)C)NC(=O)[C@@H](NC(=O)[C@@H](N)CO)[C@@H](C)CC)C(C)C)C(=O)N[C@@H](Cc1ccccc1)C(N)=O [SILGKLWKGVKSIF]
MIC [30]: 3.97 µM (≈ 6.25 µg/mL) | MIC [31]: 31.7 µM (≈ 50 µg/mL) | MIC [32]: 7.93 µM (≈ 12.5 µg/mL) | MIC [16]: 15.9 µM (≈ 25 µg/mL) | MIC [33]: 31.7 µM (≈ 50 µg/mL) | MIC [34]: 3.97 µM (≈ 6.25 µg/mL) | MIC [17]: 3.97 µM (≈ 6.25 µg/mL) | MIC [35]: 3.97 µM (≈ 6.25 µg/mL) | MIC [36]: 15.9 µM (≈ 25 µg/mL)

CC[C@H](C)[C@H](NC(=O)[C@H](Cc1ccccc1)NC(=O)[C@H](CCCCN)NC(=O)[C@H](CC(C)C)NC(=O)[C@H](C)NC(=O)[C@H](CO)NC(=O)[C@H](CC(C)C)NC(=O)[C@H](Cc1c[nH]c2ccccc12)NC(=O)[C@@H](N)C(C)C)C(=O)NCC(=O)N[C@@H](CCCCN)C(=O)N[C@@H](Cc1cnc[nH]1)C(=O)N[C@@H](CC(C)C)C(=O)N[C@@H](C)C(=O)N[C@@H](CCCCN)C(=O)N[C@@H](Cc1cnc[nH]1)C(=O)N[C@@H](CCC(N)=O)C(=O)N[C@@H](CC(C)C)C(=O)N[C@@H](CO)C(=O)N[C@@H](CCCCN)C(=O)N[C@@H](CC(C)C)C(N)=O [VWLSALKFIGKHLAKHQLSKL]
MIC [37]: 2 µM (≈ 4.83 µg/mL) | MIC [38]: 3.1 µM and 1.41 µM | MIC [31]: 1 µM (≈ 2.42 µg/mL) | MIC [39]: ≥ 50 µM | MIC [40]: 1 µM (≈ 2.42 µg/mL) | MIC [41]: 3.1 µM (≈ 7.49 µg/mL) | MIC [26]: 50 µM (≈ 121 µg/mL) | MIC [42]: 2 µM (≈ 4.83 µg/mL) | MIC [43]: 3.1 µM (≈ 7.49 µg/mL) | MIC [44]: 2 µM (≈ 4.83 µg/mL) | MIC [45]: 3.1 µM (≈ 7.49 µg/mL) | MIC [46]: 4.42 µM and 12.5 µM | MIC [35]: 1 µM and > 0.5 µM | MIC [47]: 12.5 µM (≈ 30.2 µg/mL)
